# Test results as given in ChEMBL document CHEMBL1667764, “Characterization of the baicalein-bovine serum albumin complex without or with Cu2+ or Fe3+ by spectroscopic approaches” (Eur J Med Chem, 2011).
# Assays:
# Settings in all cases: cattle
# Albumin [1] = molecular target: T1, Albumin (Bos taurus, UniProt P02769); assay: Binding affinity to bovine serum albumin at pH 7.4 at 310K in presence of Fe3+ by fluorescence quenching logarithmic plot
# Albumin [2] = molecular target: T1, Albumin; assay: Binding affinity to bovine serum albumin using 6x10'-6 Lmol'-1 at pH 7.4 at 310K by Stern-Volmer plot
# Albumin [3] = molecular target: T1, Albumin; assay: Binding affinity to bovine serum albumin at pH 7.4 at 310K by fluorescence quenching logarithmic plot
# Albumin [4] = molecular target: T1, Albumin; assay: Binding affinity to bovine serum albumin at pH 7.4 at 310K by fluorescence quenching
# Albumin [5] = molecular target: T1, Albumin; assay: Binding affinity to bovine serum albumin at pH 7.4 at 310K in presence of Cu2+ by fluorescence quenching
# Albumin [6] = molecular target: T1, Albumin; assay: Binding affinity to bovine serum albumin using 3x10'-6 Lmol'-1 at pH 7.4 at 310K by Stern-Volmer plot
# Albumin [7] = molecular target: T1, Albumin; assay: Binding affinity to bovine serum albumin at pH 7.4 at 310K in presence of Fe3+ by fluorescence quenching
# Albumin [8] = molecular target: T1, Albumin; assay: Binding affinity to bovine serum albumin at pH 7.4 at 310K in presence of Cu2+ by fluorescence quenching logarithmic plot
# Albumin [9] = molecular target: T1, Albumin; assay: Binding affinity to bovine serum albumin using 4.5x10'-6 Lmol'-1 at pH 7.4 at 310K by Stern-Volmer plot
# T1 sequence (P02769 whole entry): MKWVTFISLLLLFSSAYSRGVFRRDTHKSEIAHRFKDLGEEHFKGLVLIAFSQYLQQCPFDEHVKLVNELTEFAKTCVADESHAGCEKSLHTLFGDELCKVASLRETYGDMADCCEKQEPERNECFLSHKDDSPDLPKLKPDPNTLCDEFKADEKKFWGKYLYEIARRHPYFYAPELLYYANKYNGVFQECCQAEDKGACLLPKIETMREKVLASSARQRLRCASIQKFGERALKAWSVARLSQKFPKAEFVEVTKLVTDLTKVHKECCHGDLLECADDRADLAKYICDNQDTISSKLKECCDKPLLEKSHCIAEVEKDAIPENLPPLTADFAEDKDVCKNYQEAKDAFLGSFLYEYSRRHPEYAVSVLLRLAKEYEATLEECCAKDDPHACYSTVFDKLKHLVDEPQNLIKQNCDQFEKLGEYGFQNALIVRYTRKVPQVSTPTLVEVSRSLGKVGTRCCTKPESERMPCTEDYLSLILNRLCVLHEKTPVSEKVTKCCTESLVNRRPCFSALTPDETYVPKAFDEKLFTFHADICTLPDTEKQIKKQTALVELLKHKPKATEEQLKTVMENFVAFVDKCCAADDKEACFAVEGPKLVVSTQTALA
smiles,measurement,setting,value
O=c1cc(-c2ccccc2)oc2cc(O)c(O)c(O)c12 [BAICALEIN],K,Albumin [1],4.85 ×10⁴ L/mol
same,KSV,Albumin [2],1.51 ×10⁵ L/mol
same,Kq,Albumin [2],3.02 ×10¹³ L/mol/s
same,K,Albumin [3],2.7 ×10⁵ L/mol
same,KSV,Albumin [4],1.96 ×10⁵ L/mol
same,Kq,Albumin [4],3.92 ×10¹³ L/mol/s
same,KSV,Albumin [5],1.76 ×10⁵ L/mol
same,Kq,Albumin [5],3.52 ×10¹³ L/mol/s
same,KSV,Albumin [6],2.11 ×10⁵ L/mol
same,Kq,Albumin [6],4.22 ×10¹³ L/mol/s
same,KSV,Albumin [7],1.6 ×10⁵ L/mol
same,Kq,Albumin [7],3.2 ×10¹³ L/mol/s
same,K,Albumin [8],1.88 ×10⁵ L/mol
same,KSV,Albumin [9],1.96 ×10⁵ L/mol
same,Kq,Albumin [9],3.92 ×10¹³ L/mol/s
